Several values for one entry are separate records, joined by “and”; a condition that tells them apart may be missing. Identical values can stand only once.
System: BDF1 mice, Adenocarcinoma 755 s.c., tumor weight T/C
Experiment: NCI In Vivo Anticancer Drug Screen. Data for tumor model Adenocarcinoma 755 (subcutaneous) in B6D2F1 (BDF1) mice
Conditions: endpoint: mean tumor weight, higher = larger tumour
Procedure, shortened: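 Values express treated (T) relative to vehicle-dosed control (C) animals, based on survival or tumour size measured after compound treatment of mice bearing a transplanted tumour.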

In the case of `CN(C)N=Nc1ccc(C(=O)NN)cc1`, the T/C (dose: 75.0 mg/kg/injection, schedule: Q01DX011 (ip), vehicle: carboxymethylcellulose (CMC)) is reported as 31 % of control and the T/C (dose: 100.0 mg/kg/injection, schedule: Q01DX011 (ip), vehicle: carboxymethylcellulose (CMC)) is reported as 15 % of control.
`[OH-].[OH-].[Pd+2].c1ccc(CSc2ncnc3nc[nH]c23)cc1.c1ccc(CSc2ncnc3nc[nH]c23)cc1.c1ccc(CSc2ncnc3nc[nH]c23)cc1.c1ccc(CSc2ncnc3nc[nH]c23)cc1` was tested, and the T/C (dose: 3.0 mg/kg/injection, schedule: Q01DX011 (ip), vehicle: saline) was 76 % of control, the T/C (dose: 6.0 mg/kg/injection, schedule: Q01DX011 (ip), vehicle: saline) was 36 % of control and the T/C (dose: 12.0 mg/kg/injection, schedule: Q01DX011 (ip), vehicle: saline) was 17 % of control. For the same compound, the T/C (dose: 12.5 mg/kg/injection, schedule: Q01DX011 (ip), vehicle: saline) was 16 % of control, the T/C (dose: 25.0 mg/kg/injection, schedule: Q01DX011 (ip), vehicle: saline) was 1 % of control and the T/C (dose: 50.0 mg/kg/injection, schedule: Q01DX011 (ip), vehicle: saline) was 1 % of control. The T/C (dose: 100.0 mg/kg/injection, schedule: Q01DX011 (ip), vehicle: saline) was 1 % of control and the T/C (dose: 200.0 mg/kg/injection, schedule: Q01DX011 (ip), vehicle: saline) was 1 % of control.
`[I][Hg][CH2]C1COCC([CH2][Hg][I])O1.[I][Hg][CH2]C1COCC([CH2][Hg][I])O1` (centres undefined) was tested, and the T/C (dose: 10.0 mg/kg/injection, schedule: Q01DX011 (ip), vehicle: other) was 59 % of control, the T/C (dose: 20.0 mg/kg/injection, schedule: Q01DX011 (ip), vehicle: other) was 63 % of control and the T/C (dose: 40.0 mg/kg/injection, schedule: Q01DX011 (ip), vehicle: other) was 31 % of control.
In the case of `Cc1ccc(N=Nc2c(S(=O)(=O)O)cc3cc(NC(=O)Nc4ccc5c(O)c(N=Nc6ccc7cc(S(=O)(=O)O)ccc7c6)c(S(=O)(=O)O)cc5c4)ccc3c2O)c(C)c1`, the T/C (dose: 45.0 mg/kg/injection, schedule: Q01DX011 (ip), vehicle: carboxymethylcellulose (CMC)) is reported as 81 % of control.
For `CCOC(=O)C(Cc1ccc(N(CCCl)CCCl)cc1)NC=O` (centres undefined), the T/C (dose: 5.0 mg/kg/injection, schedule: Q01DX011 (ip), vehicle: carboxymethylcellulose (CMC)) was 75 % of control, the T/C (dose: 10.0 mg/kg/injection, schedule: Q01DX011 (ip), vehicle: carboxymethylcellulose (CMC)) was 43 % of control and the T/C (dose: 20.0 mg/kg/injection, schedule: Q01DX011 (ip), vehicle: carboxymethylcellulose (CMC)) was 48 % of control. The T/C (dose: 40.0 mg/kg/injection, schedule: Q01DX011 (ip), vehicle: carboxymethylcellulose (CMC)) was 3 % of control and the T/C (dose: 80.0 mg/kg/injection, schedule: Q01DX011 (ip), vehicle: carboxymethylcellulose (CMC)) was 6 % of control.
In the case of `C[C@]12CCC(=O)C=C1CC[C@H]1[C@@H]3CC[C@](O)(C(=O)CF)[C@@]3(C)C[C@H](O)[C@@]12F`, the T/C (dose: 0.87 mg/kg/injection, schedule: Q01DX011 (sc), vehicle: steriod suspending solution) is reported as 86 % of control, the T/C (dose: 1.75 mg/kg/injection, schedule: Q01DX011 (sc), vehicle: steriod suspending solution) is reported as 68 % of control and the T/C (dose: 3.5 mg/kg/injection, schedule: Q01DX011 (sc), vehicle: steriod suspending solution) is reported as 66 % of control and 69 % of control. The T/C (dose: 7.0 mg/kg/injection, schedule: Q01DX011 (sc), vehicle: steriod suspending solution) was 29 % of control and 34 % of control and 40 % of control, the T/C (dose: 28.0 mg/kg/injection, schedule: Q01DX011 (sc), vehicle: steriod suspending solution) was 9 % of control and 28 % of control and the T/C (dose: 56.0 mg/kg/injection, schedule: Q01DX011 (sc), vehicle: steriod suspending solution) was 10 % of control and 31 % of control.
`O=C(CCl)Nc1ncnc2nc[nH]c12` was tested, and the T/C (dose: 20.0 mg/kg/injection, schedule: Q01DX011 (ip), vehicle: methylcellulose (MC)) was 84 % of control.
In the case of `[N-]=[N+]=[N-]`, the T/C (dose: 1.06 mg/kg/injection, schedule: Q01DX011 (ip), vehicle: carboxymethylcellulose (CMC)) is reported as 114 % of control, the T/C (dose: 1.55 mg/kg/injection, schedule: Q01DX011 (ip), vehicle: carboxymethylcellulose (CMC)) is reported as 75 % of control and the T/C (dose: 2.13 mg/kg/injection, schedule: Q01DX011 (ip), vehicle: carboxymethylcellulose (CMC)) is reported as 61 % of control. The T/C (dose: 3.1 mg/kg/injection, schedule: Q01DX011 (ip), vehicle: carboxymethylcellulose (CMC)) was 82 % of control, the T/C (dose: 4.25 mg/kg/injection, schedule: Q01DX011 (ip), vehicle: carboxymethylcellulose (CMC)) was 80 % of control and the T/C (dose: 6.2 mg/kg/injection, schedule: Q01DX011 (ip), vehicle: carboxymethylcellulose (CMC)) was 57 % of control. The T/C (dose: 8.5 mg/kg/injection, schedule: Q01DX011 (ip), vehicle: carboxymethylcellulose (CMC)) was 80 % of control and the T/C (dose: 12.4 mg/kg/injection, schedule: Q01DX011 (ip), vehicle: carboxymethylcellulose (CMC)) was 80 % of control.

— PubChem BioAssay AID180 (DTP/NCI, 2004)
